Experimental data from US11498903B2 (BRISTOL-MYERS SQUIBB COMPANY, priority 2017, dated 2022).
Read-outs that look alike come from different tables or passages of the source.

Biological target: T1, human APJ receptor (Homo sapiens, UniProt P35414)
T1 construct: expressed in transfected cells
T1 sequence (P35414 1-380): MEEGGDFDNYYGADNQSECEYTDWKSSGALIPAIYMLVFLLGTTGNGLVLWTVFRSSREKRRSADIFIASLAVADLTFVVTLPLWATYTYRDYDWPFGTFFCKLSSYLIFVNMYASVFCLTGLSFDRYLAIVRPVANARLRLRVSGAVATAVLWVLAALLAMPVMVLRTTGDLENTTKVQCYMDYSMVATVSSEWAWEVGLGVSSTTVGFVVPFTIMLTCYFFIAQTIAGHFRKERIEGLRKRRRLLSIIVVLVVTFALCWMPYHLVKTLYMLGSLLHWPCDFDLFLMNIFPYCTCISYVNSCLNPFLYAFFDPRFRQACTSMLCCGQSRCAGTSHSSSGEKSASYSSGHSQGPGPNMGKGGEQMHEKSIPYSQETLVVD
Test: Intracellular cAMP accumulation assay (APJ hcAMP, HTRF)
Assay type: cell-based
Conditions: HEK293 cells stably expressing human APJ receptor
Procedure, shortened: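 HEK293 cells stably expressing human APJ, 5,000/well, incubated 30 min at room temperature with compound plus […] and 2 μM forskolin. cAMP read by HTRF against a cAMP standard curve; EC50 from variable-slope sigmoidal fit, Ymax as % of (Pyr1)apelin-13 inhibition.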

[1] = Table 1, inhibition of forskolin-mediated cAMP production, read-out: APJ hcAMP EC50
[2] = Table 2, read-out: APJ cAMP Human EC50

`CCC[C@@H](NC(=O)c1ccc(-c2cc(C(F)(F)F)ccc2-c2nc3ccccc3[nH]2)c(C(=O)O)c1)c1ccccc1` [Example 51, 2′-(1H-1,3-benzodiazol-2-yl)-4-{[(1R)-1-phenylbutyl]carbamoyl}-5′-(trifluoromethyl)-[1,1′-biphenyl]-2-carboxylic acid] was tested, and the EC50 [1] was < 10 nM and the EC50 [2] was < 10 nM.
For `CCC[C@@H](NC(=O)c1ccc(-c2ccccc2-c2nc3ccccc3[nH]2)c(C(=O)O)c1)c1ccccc1` [Example 52, 2′-(1H-1,3-benzodiazol-2-yl)-4-{[(1R)-1-phenylbutyl]carbamoyl}-[1,1′-biphenyl]-2-carboxylic acid], the EC50 [1] was < 10 nM and the EC50 [2] was < 10 nM.
For `CCC[C@@H](NC(=O)c1ccc(-c2cc(OC)ccc2-c2nc3ccccc3[nH]2)c(C(=O)O)c1)c1ccccc1` [Example 53, 2′-(1H-1,3-benzodiazol-2-yl)-5′-methoxy-4-{[(1R)-1-phenylbutyl]carbamoyl}-[1,1′-biphenyl]-2-carboxylic acid], the EC50 [1] was < 10 nM and the EC50 [2] was < 10 nM.
`CCC[C@@H](NC(=O)c1ccc(-c2ccc(Cl)cc2-c2nc3ccccc3[nH]2)c(C(=O)O)c1)c1ccccc1` [Example 54, 2′-(1H-1,3-benzodiazol-2-yl)-4′-chloro-4-{[(1R)-1-phenylbutyl]carbamoyl}-[1,1′-biphenyl]-2-carboxylic acid] showed an EC50 [1] of 10 to 100 nM and an EC50 [2] of 10 to 100 nM.
`CCC[C@@H](NC(=O)c1ccc(-c2cccc(F)c2-c2nc3ccccc3[nH]2)c(C(=O)O)c1)c1ccccc1` [Example 55, 2′-(1H-1,3-benzodiazol-2-yl)-3′-fluoro-4-{[(1R)-1-phenylbutyl]carbamoyl}-[1,1′-biphenyl]-2-carboxylic acid] was tested, and the EC50 [1] was 101 to 500 nM and the EC50 [2] was 101 to 500 nM.
With `CCC[C@@H](NC(=O)c1ccc(-c2cc(C(F)(F)F)ccc2-c2nc3cc(OC)ccc3[nH]2)c(C(=O)O)c1)c1ccccc1` [Example 56, 2′-(5-methoxy-1H-1,3-benzodiazol-2-yl)-4-{[(1R)-1-phenylbutyl]carbamoyl}-5′-(trifluoromethyl)-[1,1′-biphenyl]-2-carboxylic acid] the EC50 [1] was < 10 nM and the EC50 [2] was < 10 nM.
In the case of `CCC[C@@H](NC(=O)c1ccc(-c2ccc(Cl)cc2-c2nc3cc(OC)ccc3[nH]2)c(C(=O)O)c1)c1ccccc1` [Example 57, 4′-chloro-2′-(5-methoxy-1H-1,3-benzodiazol-2-yl)-4-{[(1R)-1-phenylbutyl]carbamoyl}-[1,1′-biphenyl]-2-carboxylic acid], the EC50 [1] is reported as < 10 nM and the EC50 [2] is reported as < 10 nM.
`CCC[C@@H](NC(=O)c1ccc(-c2ccccc2-c2nc3cc(OC)ccc3[nH]2)c(C(=O)O)c1)c1ccccc1` [Example 58, 2′-(5-methoxy-1H-1,3-benzodiazol-2-yl)-4-{[(1R)-1-phenylbutyl]carbamoyl}-[1,1′-biphenyl]-2-carboxylic acid] was tested, and the EC50 [1] was < 10 nM and the EC50 [2] was < 10 nM.
For `CCC[C@@H](NC(=O)c1ccc(-c2cc(OC)ccc2-c2nc3cc(OC)ccc3[nH]2)c(C(=O)O)c1)c1ccccc1` [Example 59, 5′-methoxy-2′-(5-methoxy-1H-1,3-benzodiazol-2-yl)-4-{[(1R)-1-phenylbutyl]carbamoyl}-[1,1′-biphenyl]-2-carboxylic acid], the EC50 [1] was < 10 nM and the EC50 [2] was < 10 nM.
In the case of `CCC[C@@H](NC(=O)c1ccc(-c2cc(C(F)(F)F)ccc2-c2nc3cc(C(C)(C)C)ccc3[nH]2)c(C(=O)O)c1)c1ccccc1` [Example 60, 2′-(5-tert-butyl-1H-1,3-benzodiazol-2-yl)-4-{[(1R)-1-phenylbutyl]carbamoyl}-5′-(trifluoromethyl)-[1,1′-biphenyl]-2-carboxylic acid], the EC50 [1] is reported as < 10 nM and the EC50 [2] is reported as < 10 nM.
In the case of `CCC[C@@H](NC(=O)c1ccc(-c2cc(OC)ccc2-c2nc3cc(C(C)(C)C)ccc3[nH]2)c(C(=O)O)c1)c1ccccc1` [Example 61, 2′-(5-tert-butyl-1H-1,3-benzodiazol-2-yl)-5′-methoxy-4-{[(1R)-1-phenylbutyl]carbamoyl}-[1,1′-biphenyl]-2-carboxylic acid], the EC50 [1] is reported as < 10 nM and the EC50 [2] is reported as < 10 nM.
In the case of `CCC[C@@H](NC(=O)c1ccc(-c2ccccc2-c2nc3cc(C(C)(C)C)ccc3[nH]2)c(C(=O)O)c1)c1ccccc1` [Example 62, 2′-(5-tert-butyl-1H-1,3-benzodiazol-2-yl)-4-{[(1R)-1-phenylbutyl]carbamoyl}-[1,1′-biphenyl]-2-carboxylic acid], the EC50 [1] is reported as 10 to 100 nM and the EC50 [2] is reported as < 10 nM.
`CCC[C@@H](NC(=O)c1ccc(-c2ccc(Cl)cc2-c2nc3cc(C(C)(C)C)ccc3[nH]2)c(C(=O)O)c1)c1ccccc1` [Example 63, 2′-(5-tert-butyl-1H-1,3-benzodiazol-2-yl)-4′-chloro-4-{[(1R)-1-phenylbutyl]carbamoyl}-[1,1′-biphenyl]-2-carboxylic acid] was tested, and the EC50 [1] was 10 to 100 nM and the EC50 [2] was 10 to 100 nM.
With `COC[C@@H](NC(=O)c1ccc(-c2ccccc2-c2nc3cc(OC)ccc3[nH]2)c(C(=O)O)c1)c1ccccc1` [Example 64, 4-{[(1S)-2-methoxy-1-phenylethyl]carbamoyl}-2′-(5-methoxy-1H-1,3-benzodiazol-2-yl)-[1,1′-biphenyl]-2-carboxylic acid] the EC50 [1] was < 10 nM and the EC50 [2] was < 10 nM.
For `COC[C@@H](NC(=O)c1ccc(-c2ccccc2-c2nc3cc(C(C)(C)C)ccc3[nH]2)c(C(=O)O)c1)c1ccccc1` [Example 65, 2′-(5-tert-butyl-1H-1.3-benzodiazol-2-yl)-4-{[(1S)-2-methoxy-1-phenylethyl]carbamoyl}-[1,1′-biphenyl]-2-carboxylic acid], the EC50 [1] was < 10 nM and the EC50 [2] was < 10 nM.
`COC[C@@H](NC(=O)c1ccc(-c2ccccc2-c2nc3ccccc3[nH]2)c(C(=O)O)c1)c1ccccc1` [Example 66, 2′-(1H-1,3-benzodiazol-2-yl)-4-{[(1S)-2-methoxy-1-phenylethyl]carbamoyl}-[1,1′-biphenyl]-2-carboxylic acid] showed an EC50 [1] of 10 to 100 nM and an EC50 [2] of 10 to 100 nM.
In the case of `CCC[C@@H](NC(=O)c1cc(C(=O)O)c(-c2cc(Cl)ccc2-c2nc3cc(OC)ccc3[nH]2)cc1C)c1ccccc1` [Example 67, 5′-chloro-2′-(5-methoxy-1H-1,3-benzodiazol-2-yl)-5-methyl-4-{[(1R)-1-phenylbutyl]carbamoyl}-[1,1′-biphenyl]-2-carboxylic acid], the EC50 [1] is reported as < 10 nM and the EC50 [2] is reported as < 10 nM.
With `CCC[C@@H](NC(=O)c1cc(C(=O)O)c(-c2cc(Cl)ccc2-c2nc3cc(C(C)(C)C)ccc3[nH]2)cc1C)c1ccccc1` [Example 68, 2,-(5-tert-butyl-1H-1,3-benzodiazol-2-yl)-5′-chloro-5-methyl-4-{[(1R)-1-phenylbutyl]carbamoyl}-[1,1′-biphenyl]-2-carboxylic acid] the EC50 [1] was < 10 nM and the EC50 [2] was < 10 nM.
`COC[C@@H](NC(=O)c1ccc(-c2cc(Cl)ccc2-c2nc3ccccc3[nH]2)c(C(=O)O)c1)c1ccccc1` [Example 69, 2′-(1H-1,3-benzodiazol-2-yl)-5′-chloro-4-{[(1S)-2-methoxy-1-phenylethyl]carbamoyl}-[1,1′-biphenyl]-2-carboxylic acid] was tested, and the EC50 [1] was < 10 nM and the EC50 [2] was < 10 nM.
`COc1ccccc1[C@@H](C)NC(=O)c1ccc(-c2cc(Cl)ccc2-c2nc3ccccc3[nH]2)c(C(=O)O)c1` [Example 70, 2′-(1H-1,3-benzodiazol-2-yl)-5′-chloro-4-{[(1R)-1-(2-methoxyphenyl)ethyl]carbamoyl}-[1,1′-biphenyl]-2-carboxylic acid] was tested, and the EC50 [1] was < 10 nM and the EC50 [2] was < 10 nM.
